US20190358242A1, “COMPOSITIONS, KITS, AND METHODS TO INDUCE ACQUIRED CYTORESISTANCE USING STRESS PROTEIN INDUCERS” (FRED HUTCHINSON CANCER RESEARCH CENTER, priority 2017, published 2019)

What was measured:
[1] = system: HO-1 mRNA; test: SnPP vs. SnMeP: renal cortical HO-1 mRNA induction (RT-PCR); assay type: in vivo, mice; conditions: 1 umole, 4 hrs post injection, n 3
From the text: FIG. 28. Comparison of SnPP vs. SnMeP effects on renal cortical HO-1 and haptoglobin mRNA induction 4 hrs post agent injection. Mice received either 1 umole tin protoporphyrin (SnPP), tin mesoporphyrin (SnMeP), or vehicle (n, 3 each) and 4 hrs renal cortical RNA was extracted and subjected to RT-PCR.

[2] = system: HO-1 mRNA; test: Liver HO-1 mRNA (RT-PCR); assay type: in vivo, CD-1 mice
Procedure: (§1) Thirty-two mice were divided into 4 equal groups: (1) control mice; (2) mice treated with 1 mg of N-Mgb injection (as a bolus through the tail vein); (3) mice treated with […] of SnPP (via tail vein); and (4) mice treated with combined N-Mgb 1 SnPP. After either 4 hours (n=16) or 18 hours (n=16), the mice were deeply anesthetized with pentobarbital (50 mg/kg), the abdomen was opened through a midline abdominal incision, and the kidneys were removed. To determine potential effects on extrarenal organs, a liver lobe and the heart were also removed. The tissues were iced and then extracted for protein and RNA (RNeasy Plus Mini; Qiagen, Valencia, Calif.) and subjected to enzyme linked immunosorbent assay (ELISA) and reverse transcriptase polymerase chain reaction (RT-PCR) for HO-1, haptoglobin, and IL-10 protein and messenger RNAs (mRNAs). Zager et al. J Am Soc Nephrol 2014; 25:998-1012; Zager et al. Am J Physiol 2012; 303:F139-48. As an assessment of renal function, control mice and the 18 hour after N-Mgb+SnPP-treated mice had blood urea nitrogen (BUN) and plasma creatinine levels measured. Additionally, transverse 10% formalin fixed kidney sections ([…]) were cut and stained with hematoxylin and eosin (H&E) and periodic acid Schiff (PAS) to further assess potential injury.

[3] = system: haptoglobin protein; test: Cardiac haptoglobin protein (ELISA); assay type: in vivo, CD-1 mice
Procedure: as §1

[4] = system: IL-10 protein; test: Cardiac IL-10 protein (ELISA); assay type: in vivo, CD-1 mice
Procedure: as §1

[5] = system: IL-10 mRNA; test: Cardiac IL-10 mRNA (RT-PCR); assay type: in vivo, CD-1 mice
Procedure: as §1

[6] = system: Mgb-exposed cultured proximal tubule (HK-2) cells; conditions: Zager & Burkhart, Kidney Int 1997; cited from earlier work
[7] = system: ferritin heavy chain; test: Kidney ferritin heavy chain expression (Western blotting); assay type: in vivo, mice; conditions: 18 hrs following 1 umole SnPP, 1 mg FeS or combined
Procedure: FIG. 32. Ferritin heavy chain expression (as determined by Western blotting) in kidneys 18 hrs following 1 umole tin protoporphyrin (SnPP), 1 mg Fe sucrose (FeS) or combined SnPP+FeS treatment.

[8] = system: haptoglobin mRNA; test: Liver haptoglobin mRNA (RT-PCR); assay type: in vivo, CD-1 mice
Procedure: as §1

[9] = system: IL-10 protein; test: Liver IL-10 protein (ELISA); assay type: in vivo, CD-1 mice
Procedure: as §1

[10] = system: IL-10 mRNA; test: Kidney IL-10 mRNA (RT-PCR); assay type: in vivo, CD-1 mice
Procedure: as §1

[11] = Berglund 1988; Kappas 1988; Reddy 2003; cited from earlier work
[12] = system: maleate model of AKI; test: Maleate model of AKI (800 mg/Kg), FeS/SnPP and FeS/B12; assay type: in vivo, CD-1 mice; conditions: IV 18 hrs before 800 mg/Kg maleate; 18 hrs post maleate; 1 mg FeS, 1 μmole SnPP or B12
From the text: Effects of Fe sucrose (FeS)/tin protoporphyrin (SnPP) on AKI severity. Maleate model of AKI. When injected into rodents, maleate undergoes relatively selective proximal tubule cell uptake via organic anion transporters. Once intracellular accumulation occurs, maleate is a preferred substrate for succinyl-CoA:3-oxoacid CoA transferase. […] Ample levels of CoA are essential for fatty acid “activation”, allowing for their subsequent metabolism through the Krebs cycle, yielding ATP. In the absence of this process, proximal tubule ATP depletion and cell injury result. Additionally, maleate conjugates the sulfhydryl group of glutathione (GSH), culminating in GSH depletion and potential oxidant tubular stress.
The following experiment tested whether FeS, SnPP or combined FeS+SnPP can mitigate this form of acute kidney injury (AKI). Twenty seven mice were subjected to 200 μL IV tail injections of one of the following: 1) vehicle (phosphate buffered saline, PBS; n, 10); 2) 1 mg FeS (American Regent (Shirley, N.Y.; n, 3); 3) 1 μmole SnPP (Frontier Scientific, Logan, Utah; n 7), or FeS+SnPP, n, 7). […] The severity of kidney injury was assessed by determining plasma blood urea nitrogen (BUN) and plasma creatinine (PCr) concentrations.
Maleate model of AKI. […] The severity of AKI was determined 18 hrs post maleate injection by terminal BUN and PCr assessments.

Which “Renal cortical HO-1 mRNA induction” value [1] does the source give for C=Cc1c2[n-]c(c1C)/C=c1\[n-]/c(c(C)c1C=C)=C\c1[n-]c(c(CCC(=O)O)c1C)/C=c1\[n-]c(c(C)c1CCC(=O)O)=C2.[Sn+4] [SnPP, tin protoporphyrin] here?
Its value is “raised”.

What about the “Liver mRNA HO-1” value ([2]; 4 h after IV injection) of the same molecule?
Its value is 3.15 ± 0.25.

What about the “Liver mRNA HO-1” value ([2]; 18 h after IV injection) of the same molecule?
The value was 2.56 ± 0.21.

And the “Cardiac protein Haptoglobin” value ([3]; 4 h after IV injection)?
The value was 19.1 ± 2.1.

And the “Cardiac protein Haptoglobin” value ([3]; 18 h after IV injection)?
The value was 96.1 ± 36.2.

And the “Cardiac Protein IL-10” value ([4]; 4 h after IV injection)?
The value was 15.8 ± 10^.

What about the “Cardiac protein IL-10 (L-10 [sic])” value ([4]; 18 h after IV injection) of the same molecule?
The value was 23.4 ± 14^.

And the “Cardiac mRNA IL-10” value ([5]; 4 h after IV injection)?
The value was 0.58 ± 0.16.

And the “Cardiac mRNA IL-10” value ([5]; 18 h after IV injection)?
The value was 0.53 ± 0.10.

And the “Reduction of Mgb toxicity” value [6]?
Its value is no more than 85%.

What about the “Ferritin heavy chain protein levels in kidney” value [7] of the same molecule?
Its value is “weak effect”.

And the “Liver mRNA Haptoglobin” value ([8]; 4 h after IV injection)?
Its value is 0.32 ± 0.02.

What about the “Liver mRNA Haptoglobin” value ([8]; 18 h after IV injection) of the same molecule?
The value was 0.65 ± 0.17.

What about the “Liver protein IL-10” value ([9]; 4 h after IV injection) of the same molecule?
The value was 485 ± 47.

What about the “Liver protein IL-10” value ([9]; 18 h after IV injection) of the same molecule?
Its value is 8198 ± 725.

What about the “Impact on renal IL-10 mRNA levels, in words” value ([10]; 4-hour time point, agent alone) of the same molecule?
The value was “either minimal or no impact”.

What about the “Kidney mRNA IL-10” value ([10]; 4 h after IV injection, N-Mgb 1 mg, SnPP 1 mmol [sic]) of the same molecule?
The value was 0.39 ± 0.15.

What about the “Kidney mRNA cortex IL-10” value ([10]; 18 h after IV injection) of the same molecule?
Its value is 0.18 ± 0.09.

And the Tolerability in humans [11]?
The Tolerability in humans was “well tolerated in humans”.

And the “Severity of maleate-induced AKI (BUN/PCr), in words” value [12]?
Its value is “Neither SnPP alone nor FeS alone significantly altered the severity of renal injury”.
